These results are taken from US20100189701A1, “METHODS AND COMPOSITIONS TO TREAT ARRHYTHMIAS” (priority 2007, published 2010).

In data set [1] the test system is Cx43. As to the kind of experiment: Western blot of HeLa cells expressing Cx43 exposed to 4PB. Format: cell-based. Particulars: HeLa cells transfected with Cx43, increasing doses. The source says: FIG. 34 illustrates a Western blot where HeLa cells expressing Cx43 have been exposed to increasing doses of 4PB.
4PB is an FDA approved drug that can be administered orally, which is being tested for effectiveness in spinal muscular atrophy (Wirth et al., 2006; Brahe et al., 2005), and cystic fibrosis (Singh et al., 2006). […] In addition, stress in the form of mildly elevated temperatures up-regulates connexin expression and increases the total number of functional channels (VanSlyke and Musil, 2005). The chemical chaperone (4PB), a known inhibitor of histone deacetylase, an enzyme associated with inactivation of gene transcription, increases Cx43 production at concentrations in the mM range and exposure times of hours. Not only is Cx43 production elevated 2-5 fold but enhanced dye transfer is observed (Asklund et al., 2004). […] The present inventors have determined that the time course of coupling between hMSCs or model cells with myocytes reaches 50% of maximum within 48 hours.
A general note: Immunoblotting shows a protein as a band on a membrane.

The test system of data set [2] is Cx43, 40, 45. Put plainly: Example 4: chemical chaperone treatment of hMSC/myocyte co-culture, connexin expression and coupling. Format: cell-based. Particulars: initial results. Here is the method: hMSCs and myocytes in co-culture are treated with a chemical chaperone (4 PB, 4-Phenylbutric acid, FDA approved) or zp123 (Rotigaptide) a synthetic antiarrhythmia peptide, that increases Cx43 mediated coupling. Western blot analysis and RT-PCR will be used to test protein abundance and expression for Cx43, 40, 45. Dual whole cell patch clamp will be used to determine the time course of junctional coupling. Western blot analysis and RT-PCR to test for protein abundance and expression for Cx43, 40, 45. The effects of 4PB and zp123 on hMSCs alone and myocytes alone will be assesed. Co-culturing of hMSCS and myocytes (atrial or ventricular) will also be done and a vital dye (Valiunas et al., 2005) will be used on hMSCs so that after defined time intervals of co-culture fluorescence activated cell sorting can be used to isolate the cell types and Western blot analysis and RT-PCR can be performed to assess abundance and expression respectively. A peptidase, such as dipeptidyl-peptidase or equivalent, will be used to cleave any zp123 that is secreted into the extracellular space. Dual whole cell patch clamp will be used to determine the time course of junctional coupling over a 96 hour interval at 24, 48 and 96 hours respectively. […] This should translate into enhanced coupling in the form of increased junctional conductance relative to controls.

The subject of data set [3] is Cx43. The conditions noted are these: mM range, exposure times of hours; cited from earlier work.
The target of data set [4] is native SCN5A channel (Homo sapiens, UniProt Q14524). Particulars: cited from earlier work.
Chain of native SCN5A channel (Q14524 whole entry): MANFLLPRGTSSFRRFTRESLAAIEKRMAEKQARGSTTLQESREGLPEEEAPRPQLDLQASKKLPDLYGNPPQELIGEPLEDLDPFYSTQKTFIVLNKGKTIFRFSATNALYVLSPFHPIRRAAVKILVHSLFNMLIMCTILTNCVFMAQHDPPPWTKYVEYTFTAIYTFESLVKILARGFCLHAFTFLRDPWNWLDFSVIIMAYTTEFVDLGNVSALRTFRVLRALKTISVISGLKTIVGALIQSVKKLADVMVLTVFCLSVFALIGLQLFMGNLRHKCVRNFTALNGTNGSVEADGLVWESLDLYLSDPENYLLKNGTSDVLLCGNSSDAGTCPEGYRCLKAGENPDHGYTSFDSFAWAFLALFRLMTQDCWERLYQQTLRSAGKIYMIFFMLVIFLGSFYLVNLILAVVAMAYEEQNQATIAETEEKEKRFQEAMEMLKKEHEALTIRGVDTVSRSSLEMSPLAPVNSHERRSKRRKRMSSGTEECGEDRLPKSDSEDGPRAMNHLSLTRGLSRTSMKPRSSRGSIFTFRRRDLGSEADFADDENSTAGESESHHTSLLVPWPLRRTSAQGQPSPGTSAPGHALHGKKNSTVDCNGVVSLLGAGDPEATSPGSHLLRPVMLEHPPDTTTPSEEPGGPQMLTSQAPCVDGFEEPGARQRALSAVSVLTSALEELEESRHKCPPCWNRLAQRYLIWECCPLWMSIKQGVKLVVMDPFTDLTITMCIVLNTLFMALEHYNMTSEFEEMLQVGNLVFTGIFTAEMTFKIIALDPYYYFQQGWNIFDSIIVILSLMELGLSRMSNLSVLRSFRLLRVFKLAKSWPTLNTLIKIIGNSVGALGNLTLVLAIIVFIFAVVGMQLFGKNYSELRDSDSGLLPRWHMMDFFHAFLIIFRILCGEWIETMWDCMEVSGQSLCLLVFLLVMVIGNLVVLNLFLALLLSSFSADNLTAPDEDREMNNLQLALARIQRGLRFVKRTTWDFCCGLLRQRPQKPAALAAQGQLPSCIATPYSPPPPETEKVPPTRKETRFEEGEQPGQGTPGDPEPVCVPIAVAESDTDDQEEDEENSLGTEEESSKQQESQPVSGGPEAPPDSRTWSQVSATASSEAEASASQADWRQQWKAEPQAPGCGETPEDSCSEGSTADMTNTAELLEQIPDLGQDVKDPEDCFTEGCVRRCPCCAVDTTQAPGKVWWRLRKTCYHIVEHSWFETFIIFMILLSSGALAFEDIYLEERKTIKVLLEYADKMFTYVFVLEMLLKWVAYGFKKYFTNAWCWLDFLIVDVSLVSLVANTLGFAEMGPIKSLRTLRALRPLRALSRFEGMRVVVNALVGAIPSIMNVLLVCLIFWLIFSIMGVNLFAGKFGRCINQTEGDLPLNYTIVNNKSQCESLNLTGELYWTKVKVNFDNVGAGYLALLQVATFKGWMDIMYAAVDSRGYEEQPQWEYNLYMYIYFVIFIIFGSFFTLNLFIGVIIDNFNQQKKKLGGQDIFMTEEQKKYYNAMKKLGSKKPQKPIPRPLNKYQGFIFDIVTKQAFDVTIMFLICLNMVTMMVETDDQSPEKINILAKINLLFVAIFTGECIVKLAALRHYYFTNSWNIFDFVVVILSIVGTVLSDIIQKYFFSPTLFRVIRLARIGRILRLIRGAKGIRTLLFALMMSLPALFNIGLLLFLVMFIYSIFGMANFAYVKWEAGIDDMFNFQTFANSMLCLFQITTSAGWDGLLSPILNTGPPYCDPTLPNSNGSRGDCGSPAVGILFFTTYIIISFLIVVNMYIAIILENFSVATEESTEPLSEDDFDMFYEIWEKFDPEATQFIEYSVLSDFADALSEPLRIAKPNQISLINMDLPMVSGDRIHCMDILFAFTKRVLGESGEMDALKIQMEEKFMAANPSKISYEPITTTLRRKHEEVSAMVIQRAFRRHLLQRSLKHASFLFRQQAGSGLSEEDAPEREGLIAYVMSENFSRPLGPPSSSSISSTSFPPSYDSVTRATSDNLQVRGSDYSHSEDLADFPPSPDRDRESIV
Data set [5] has as its system hMSCs. Put plainly: Patch clamp of hMSCs expressing SkM1 Na channel. Format: cell-based, human. Particulars: expressed in hMSCs. The source says: Left: An hMSC transfected with SkM1 was held at potentials between −100 mV and −70 mV and pulsed to 0 mV. Since the current induced from −70 mV is > half the magnitude of the current induced from −100 mV the midpoint of inactivation was positive to −70 mV. Right: hMSCs were held at holding potentials between −100 and −55 mV for 1.5 sec and pulsed to 0 mV for 150 msec. The Boltzmann 2-state fit gives a midpoint of −62.4±3.2 mV and a slope factor of −10.3±3.2 mV.
For research on myocardial infarct-induced ventricular tachycardia, a Na channel gene with a more positive inactivation versus voltage relationship than found normally in cardiac myocytes was required. The skeletal muscle Na channel was investigated because of its reported midpoint of inactivation of −68 mV.
(The patch-clamp technique gives a direct electrical read-out from membranes.)

Data set [6] deals with neonatal rat ventricular myocyte cultures. Put plainly: Conduction velocity in neonatal rat ventricular myocyte cultures on multi-electrode array. Particulars: K 5.4 to 10 mM. Format: cell-based.
For data set [7], the system named is neonatal myocytes. Put plainly: Action potential upstroke in neonatal myocytes under K depolarization. Format: cell-based, rat. Here is the method:
FIG. 49: Effect of K depolarization on action potential upstroke in neonatal myocytes in the absence and presence of SKM1 expression. […] The elevated K reduced the upstroke to 68% of its control value (mean value after elevated K is 56% of control). Bottom) In an SKM1 expressing myocyte the upstroke is better preserved, measuring 83% of its control value in elevated K.
Top) In GFP but not SkM1 cultures there is a significant effect on CV of increasing K from 5.4 to 10 mM.
Action potentials are recorded using a patch electrode in whole cell mode on cells superfused at 35° C. These experiments are conducted on monolayer cultures when studying control conditions or when employing viral expression, which achieves near uniform expression. For studying transfected cells, the culture is resuspended on the day of experiment and cells selected on the basis of GFP fluorescence, with the GFP being part of the channel vector or co-transfected with a separate vector. Extracellular and pipette solutions are as previously employed. The external solution contains (mM): NaCl 140, KCl 5.4, CaCl2 1, MgCl2 1, HEPES 5, glucose 10, adjusted to pH 7.4. The internal solution contains (mM): aspartic acid 130, KOH 146, NaCl10, CaCl2 2, EGTA 5, HEPES10, MgATP 2, adjusted to pH 7.2. […] Parameters recorded are Vmax, MDP, action potential amplitude (AMP) and APD50.

The subject of data set [8] is epicardial border zone. As to the kind of experiment: Canine infarct epicardial border zone, electrograms and microelectrode study. Format: in vivo, dog. The conditions noted are these: 5 d after infarct and injection.
Data set [9] deals with neonatal myocyte cultures. As to the kind of experiment: Optical recording of CV and maximum pacing frequency in neonatal myocyte cultures. Format: cell-based. The conditions noted are these: high K (10.4 mM), vs GFP cultures. Here is the method:
Adenoviral treated neonatal myocyte cultures expressed SkM1 or GFP and were studied in normal and high (10.4 mM) K. Left: The effectiveness of SkM1 expression to maintain high CV persists as pacing frequency increases.
To determine if the gating characteristics of the expressed channel allow this protective effect to persist at higher frequencies, as may occur during reentrant arrhythmias, CV restitution relations in myocyte cultures expressing SkM1 Na channels+GFP and in control cultures (expressing GFP alone) was studied. FIG. 53 illustrates that CV remains greater as frequency increases, both in normal Tyrode's solution and in elevated K solution. Further, in the absence of SkM1, the breakpoint frequency is reduced in high K.

The conditions of data set [10]: cited from earlier work.

Regarding `O=C(O)CCCc1ccccc1` [4PB, 4-Phenylbutric acid], the Cx43 expression result in data set [1] was “up-regulates Cx43”. Further, the connexin up-regulation entry in data set [2] is “causes up-regulation”. Besides, the Cx43 production elevated in [3] is 2-5 fold.

In the case of `[Cd+2]` [Cd^2+], the Kd entry in data set [4] is on record as “a few hundred”.

As for “SkM1: skeletal muscle sodium channel, expressed from gene in hMSCs or myocytes”, the results for the midpoint of inactivation in data set [5], in [5] (listed as skeletal muscle Na channel) and in data set [5] (listed as skeletal muscle sodium channel) were −62.4±3.2 mV, −62 mV and −62 mV, respectively. For the same compound, the Slope factor in data set [5] (Boltzmann 2-state fit) is reported as −10.3±3.2 mV; in [10] (steady state inactivation) it was −5.4 mV. In data set [6], the “effect of membrane depolarization on CV and V′max” value was “significantly reduces CV and V′max of control cells, but not the SkM1 expressing cells”. The Vmax in data set [7] (10 K) is > 100 V/s. For the same compound, the “action potential upstroke, % of control value” in [7] (elevated K (10 mM) vs 5.4 mM) is reported as 83%. Further, in data set [8], the “electrogram at injected epicardial border zone site” value was “narrow spike”. For the same compound, the “Vmax, injected site 1 vs non-injected site 2” value in [8] (equivalent membrane depolarization) is listed as “nearly twice that of site 2”. Also, the “break-point frequency (resistance to rhythm instabilities)” value in data set [9] was “higher break-point frequencies”. The inactivation midpoint in data set [10] (as stated in Example 16 group description) was −65 mV. Moreover, the activation midpoint in [10] (as worded) is −68 mV.
